In brackets after ≈: the same amount, converted by molar mass. Where two headings read alike, the source gives them in different places.
Experiments:
E. coli [1] = assay: in vitro antibacterial activity, two-fold serial dilution in Brain-Heart Infusion Broth (MIC); format: cell-based; conditions: Escherichia coli, overnight, anaerobic
Description: (§1) The broth is inoculated with bacteria and with the test quinoxaline-1,4-dioxide and then it is incubated overnight under anerobic conditions. On the next day, the test is read visually. The minimum inhibitory concentration (MIC) of test compound is the lowest concentration which prevents turbidity, i.e., which prevents growth of the microorganism.
(§2) In vitro and in vivo activity of representative compounds of this invention, determined as aforesaid, are reported in the following tabulation for compounds of the formula: [drawing 12]

Strep. pyrogens = assay: as above; format: cell-based; conditions: overnight, anaerobic
Description: as §1, §2

Strep. pyogenes = assay: in vivo activity in mice infected with a lethal inoculum of Strep. pyogenes; conditions: Streptococcus pyogenes, multiple dosing
Description: (§3) In determining the in vivo activity of the quinoxaline-1,4-dioxides of this invention, the test compound is administered to mice which have been infected by […] injection of a lethal inoculum of pathogenic bacteria. The test compound is administered using a multiple dosing regimen and using either the oral (PO) or the subcutaneous (SC) route. The inoculum of bacteria varies from about 1 to about 10 times the amount needed to kill 100% of the mice under the conditions of the test. At the end of the test, the activity of the compound is assessed by counting the number of survivors among the treated animals.
as §2

E. coli [2] = assay: in vivo activity in mice infected with a lethal inoculum of E. coli; conditions: Escherichia coli, sc, subcutaneous, multiple dosing, read-out: IN VIVO E. coli, number of survivors among the treated animals
Description: as §3, §2

pathogenic bacteria = assay: in vivo activity in infected mice, last four lines of the table; conditions: bacterium and dose in drawing 28, not readable
Description: as §3, §2

[3] = oral, read-out: IN VIVO Strep. pyogenes, number of survivors among the treated animals, PO (data in parenthesis)
[4] = sc, subcutaneous, read-out: IN VIVO Strep. pyogenes, number of survivors among the treated animals

| Structure (SMILES) | MIC (E. coli [1]) [µg/mL] | MIC (Strep. pyrogens) [µg/mL] | responders at 50 mg/kg (Strep. pyogenes; [3]) [%] | responders at 50 mg/kg (Strep. pyogenes; [4]) [%] | responders at 25 mg/kg (E. coli [2]) [%] | IN VIVO number of survivors among the treated animals, PO (data in parenthesis; head drawing 28) (pathogenic bacteria; oral) | IN VIVO number of survivors among the treated animals (head drawing 28) (pathogenic bacteria; subcutaneous) |
| --- | --- | --- | --- | --- | --- | --- | --- |
| CCOC(=O)CSCc1c(C(=O)NC)[n+]([O-])c2ccccc2[n+]1[O-] [NHCH3; SCH2 CO2 Et; H] | 12.5 (≈ 35.6 µM) | 12.5 (≈ 35.6 µM) | 0 | 0 | 30 |  |  |
| CCN(CC)CCCS(=O)(=O)Cc1c(C(=O)NC)[n+]([O-])c2ccccc2[n+]1[O-] [NHCH3; SO2 (CH2)3 N(CH2 CH3)2; H] | 25 (≈ 60.9 µM) | 12.5 (≈ 30.5 µM) | 0 | 80 | 40 |  |  |
| CNC(=O)c1c(CS(=O)(=O)CCCN(C)C)[n+]([O-])c2ccccc2[n+]1[O-] [NHCH3; SO2 (CH2)3 N(CH3)2; H] | 6.25 (≈ 16.3 µM) | 3.12 (≈ 8.17 µM) |  | 100 | 100 |  |  |
| CNC(=O)c1c(CS(=O)(=O)CCOC(C)=O)[n+]([O-])c2ccccc2[n+]1[O-] [NHCH3; SO2 CH2 CH2 OAc; H] | 3.12 (≈ 8.15 µM) | < 0.391 | 70 | 90 | 80 |  |  |
| CNC(=O)c1c(CS(=O)(=O)CCO)[n+]([O-])c2ccccc2[n+]1[O-] [NHCH3; SO2 CH2 CH2 OH; H] | 0.781 (≈ 2.29 µM) | 1.56 (≈ 4.58 µM) | 40 | 80 | 100 |  |  |
| CNC(=O)c1c(CS(=O)(=O)CCCN2CCOCC2)[n+]([O-])c2ccccc2[n+]1[O-] [NHCH3; drawing 18; H] | 25 (≈ 58.9 µM) | 25 (≈ 58.9 µM) | 70 | 100 | 0 |  |  |
| CNC(=O)c1c(CS(=O)(=O)CCCN2CCCCC2)[n+]([O-])c2ccccc2[n+]1[O-] [NHCH3; drawing 23; H] | 6.25 (≈ 14.8 µM) | 6.25 (≈ 14.8 µM) | 70 | 100 | 100 |  |  |
| CNC(=O)c1c(CS(=O)(=O)CCCCN2CCCCC2)[n+]([O-])c2ccccc2[n+]1[O-] [NHCH3; drawing 29; H] | 12.5 (≈ 28.6 µM) | 6.25 (≈ 14.3 µM) |  |  |  | 7/10 | 10/10 |
| CCC(CO)NC(=O)c1c(CS(=O)(=O)CCO)[n+]([O-])c2ccccc2[n+]1[O-] (stereo not shown) [NHCHEtCH2 OH; SO2 CH2 CH2 OH; H] | 200 (≈ 501 µM) | 3.12 (≈ 7.82 µM) | 80 | 0 | 10 |  |  |
| CCNC(=O)c1c(CS(=O)(=O)CCO)[n+]([O-])c2ccccc2[n+]1[O-] [NHEt; SO2 CH2 CH2 OH; H] | 6.25 (≈ 17.6 µM) | 1.56 (≈ 4.4 µM) | 80 | 60 | 90 |  |  |
| CNC(=O)c1c(CSCCCO)[n+]([O-])c2ccccc2[n+]1[O-] [NHMe; SCH2 CH2 CH2 OH; H] | 12.5 (≈ 38.7 µM) | 1.56 (≈ 4.83 µM) | 10 | 0 | 20 |  |  |
| CNC(=O)c1c(CSCCO)[n+]([O-])c2ccccc2[n+]1[O-] [NHMe; SCH2 CH2 OH; H] | 0.781 (≈ 2.52 µM) | 0.781 (≈ 2.52 µM) | 60 | 100 | 100 |  |  |
| CNC(=O)c1c(CS(=O)(=O)CCCO)[n+]([O-])c2ccccc2[n+]1[O-] [NHMe; SO2 CH2 CH2 CH2 OH; H] | 12.5 (≈ 35.2 µM) | 3.12 (≈ 8.79 µM) | 30 | 90 | 70 |  |  |
| CCCNC(=O)c1c(CSCCO)[n+]([O-])c2ccccc2[n+]1[O-] [NHPr; SCH2 CH2 OH; H] | 25 (≈ 74.1 µM) | 6.25 (≈ 18.5 µM) | 30 | 50 | 20 |  |  |
| CCCNC(=O)c1c(CS(=O)(=O)CCO)[n+]([O-])c2ccccc2[n+]1[O-] [NHPr; SO2 CH2 CH2 OH; H] | 3.12 (≈ 8.46 µM) | 3.12 (≈ 8.46 µM) | 70 | 40 | 20 |  |  |

Reference: patent US4039540A, “3-Substituted quinoxaline-2-carboxamide-1,4-dioxides” (Pfizer Inc., priority 1975, dated 1977)
